Test results published in patent US12690590B2, “Phenyl compound and plant disease control method” (SUMITOMO CHEMICAL COMPANY, LIMITED, priority 2020, dated 2026).

Assays:
Microsphaera diffusa = test: Test Example 10: test for controlling soybean powdery mildew, foliar spray after inoculation; type: in vivo; details: 200 ppm foliar spray 2 days after inoculation, soybeans (Kurosengoku)
Phytophthora infestans = type: in vivo; details: 200 ppm foliar spray, tomatoes (Patio), inoculated 1 day after spraying

## CCCCCSc1ccn(-c2ccc(Cl)cc2)n1 [IIA-53]
Microsphaera diffusa
  lesion area in the treated soybeans relative to the lesion area in the non-treated soybeans: ≤ 30%

## CCCS(=O)(=O)c1nc(-c2ccc(C(C)(C)C)cc2)cs1 [IIC-16]
Phytophthora infestans
  lesion area in the treated tomatoes relative to the lesion area in the non-treated tomatoes: ≤ 30%
